{"source": "patent US9328060B2", "about": "“J-series prostaglandin-ethanolamides as novel therapeutics” (East Carolina University, priority 2013, dated 2016)", "key": {"[1]": {"tested_on": "COX-2 overexpressing squamous carcinoma cell line JWF2", "conditions": "JWF2, background section; cited from earlier work"}, "COX-2": {"target": "T1, COX-2 (Mus musculus, UniProt Q05769)", "T1 construct": "endogenous in cells; host or cells: JWF2 keratinocytes", "T1 sequence (Q05769 18-604)": "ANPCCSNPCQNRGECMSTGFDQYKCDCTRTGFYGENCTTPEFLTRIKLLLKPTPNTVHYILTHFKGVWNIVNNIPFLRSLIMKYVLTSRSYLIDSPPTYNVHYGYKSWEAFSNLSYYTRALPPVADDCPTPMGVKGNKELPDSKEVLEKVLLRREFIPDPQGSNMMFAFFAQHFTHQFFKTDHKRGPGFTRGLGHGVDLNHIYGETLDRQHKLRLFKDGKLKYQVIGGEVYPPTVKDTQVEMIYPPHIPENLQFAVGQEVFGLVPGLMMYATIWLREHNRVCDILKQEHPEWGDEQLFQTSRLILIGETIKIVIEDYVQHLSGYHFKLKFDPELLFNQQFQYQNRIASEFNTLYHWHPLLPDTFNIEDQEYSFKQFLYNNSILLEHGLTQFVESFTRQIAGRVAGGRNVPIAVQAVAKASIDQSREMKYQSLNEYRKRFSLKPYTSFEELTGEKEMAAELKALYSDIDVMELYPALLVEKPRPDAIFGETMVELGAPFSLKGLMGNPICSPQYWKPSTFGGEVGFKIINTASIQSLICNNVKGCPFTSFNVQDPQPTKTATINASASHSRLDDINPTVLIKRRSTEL", "assay": "LC/MS of J-series PG-ethanolamides in culture medium of AEA-treated cells", "type": "cell-based", "conditions": "COX-2 overexpressing cells; for J-series PGs identified in AEA-treated cells: FIG. 6C", "protocol": "To identify the specific J-series PGs that are produced in AEA-treated cells that overexpress COX-2 we treated the cells with AEA, collected the culture medium and analyzed J-series PGs using LC/MS.\nTo determine the direct role of COX-2 in AEA-induced ER stress, the requirement of COX-2 for J-series PG-ethanolamide synthesis was assessed. Results are depicted in FIG. 9D."}, "[2]": {"tested_on": "D- and J-series PG synthesis", "assay": "Prostaglandin synthesis in JWF2 cells by ELISA", "type": "cell-based", "conditions": "various concentrations of AEA, FIG. 6A", "protocol": "To determine if D- and J-series PGs are synthesized endogenously, JWF2 cells were treated with various concentrations of AEA and prostaglandin synthesis measured using ELISA assays."}, "[3]": {"tested_on": "non-tumorigenic HaCaT keratinocytes", "assay": "MTS cell viability, non-tumorigenic HaCaT keratinocytes", "type": "cell-based", "conditions": "FIG. 1"}, "[4]": {"tested_on": "Tumorigenic JWF2 keratinocytes", "assay": "MTS cell viability, tumorigenic JWF2 keratinocytes", "type": "cell-based", "conditions": "various concentrations, FIG. 1", "protocol": "Tumorigenic JWF2 keratinocytes were treated with various concentrations of AEA and cell viability measured using MTS analysis. […] An interesting feature of tumorigenic keratinocytes is that they overexpress COX-2. However, non-tumorigenic keratinocytes contain low basal levels of COX-2. Therefore, the role of COX-2 in the cytotoxicity of AEA was examined.\nJWF2 tumorigenic keratinocytes were treated with each of these prostaglandins and cell survival measured in MTS assays."}, "eIF2a phosphorylation": {"tested_on": "eIF2a phosphorylation", "assay": "ER stress (eIF2a phosphorylation staining) in HaCaT transfected with COX-2 or empty vector", "type": "cell-based", "conditions": "HaCaT transfected with COX-2, relative to empty vector transfected cells, FIG. 2", "protocol": "Since it was determined that AEA-induced cell death required COX-2 we examined whether ER stress also required COX-2. In this experiment we utilized HaCaT keratinocytes which express low basal levels of COX-2. The cells were transfected with an empty vector (pcDNA6.1) or an expression vector containing COX-2. In FIG. 2 the red signal indicates COX-2 expression, green indicates P-eIF2a phosphorylation and the blue stains the nuclear membrane for orientation."}, "HaCaT keratinocytes": {"tested_on": "HaCaT keratinocytes", "conditions": "low basal COX-2, background section; cited from earlier work"}, "activated caspase-3": {"tested_on": "activated caspase-3", "assay": "Apoptosis (activated caspase-3 staining) with or without COX-2", "type": "cell-based", "text": "Red staining indicates COX-2 while the green stain indicates activated caspase-3, a hallmark for apoptosis."}, "[5]": {"tested_on": "tumorigenic keratinocytes (Jwf2)", "assay": "Apoptosis in tumorigenic keratinocytes (FIG. 14)", "type": "cell-based", "conditions": "Jwf2, FIG. 14"}, "tumor cells": {"tested_on": "tumor cells", "assay": "Selective toxicity in tumor cells (FIG. 15)", "type": "cell-based"}, "tumor cell": {"tested_on": "tumor cell", "assay": "Tumor cell death (FIG. 7)", "type": "cell-based", "conditions": "compared to 15d-PGJ"}, "[6]": {"tested_on": "CHOP10 expression and Caspase-3 cleavage", "assay": "CHOP10 expression and caspase-3 cleavage (FIGS. 12, 13)", "type": "cell-based"}, "H-PGDS and L-PGDS": {"tested_on": "H-PGDS and L-PGDS", "assay": "AEA-induced PGD2 and PGJ2 production (FIG. 11)", "type": "cell-based"}, "[7]": {"tested_on": "Lewis lung adenocarcinoma", "conditions": "oral administration, background section; cited from earlier work"}, "epidermal tumor": {"tested_on": "epidermal tumor", "conditions": "background section; cited from earlier work"}}, "data": [{"smiles": "CCCCC[C@H](O)/C=C/[C@H]1C(=O)C=C[C@@H]1C/C=C\\CCCC(=O)O", "note": "[PGJ2]", "values": [{"measurement": "cell death", "setting": "[1]", "result": "inducers of cell death"}]}, {"smiles": "CCCCCC(O)C=CC1C(=O)C=CC1CC=CCCCC(=O)NCCO", "note": "(stereo not shown) [PGJ-EA]", "values": [{"measurement": "J-series PGs identified in AEA-treated cells", "setting": "COX-2", "result": "metabolic products of AEA"}]}, {"smiles": "CCCCC/C=C\\C/C=C\\C/C=C\\C/C=C\\CCCC(=O)NCCO", "note": "[AEA, arachidonoyl ethanolamide]", "values": [{"measurement": "D-series PG synthesis", "setting": "[2]", "result": "concentration-dependent increase"}, {"measurement": "J-series PG synthesis", "setting": "[2]", "result": "concentration-dependent increase"}, {"measurement": "cell viability (MTS absorbance)", "setting": "[3]", "result": "did not lead to a loss of viability"}, {"measurement": "cell viability (MTS absorbance)", "setting": "[4]", "result": "concentration-dependent decline in tumor cell viability"}, {"measurement": "eIF2a phosphorylation (ER stress)", "setting": "eIF2a phosphorylation", "result": "significant increase in eIF2a phosphorylation"}, {"measurement": "cell death", "setting": "HaCaT keratinocytes", "result": "does not induce cell death"}, {"measurement": "apoptosis (activated caspase-3)", "setting": "activated caspase-3; cells with COX-2, FIG. 3", "result": "induced apoptosis"}, {"measurement": "apoptosis (activated caspase-3)", "setting": "activated caspase-3; in the absence of COX-2, FIG. 3", "result": "did not undergo apoptosis"}, {"measurement": "cell death", "setting": "[1]", "result": "induce cell death"}]}, {"smiles": "CCCCC[C@H](O)/C=C/[C@H]1C(=O)C[C@H](O)[C@@H]1C/C=C\\CCCC(=O)O", "note": "[PGD2]", "values": [{"measurement": "cell death", "setting": "[1]", "result": "cytotoxic"}]}, {"smiles": "CCCCC/C=C/C=C1/C(=O)C=CC1C/C=C\\CCCC(=O)NCCO", "note": "(stereo not shown) [15d-PGJ-EA, 15-deoxy Δ^12,14-prostagladin J2-ethanolamide]", "values": [{"measurement": "apoptosis", "setting": "[5]", "result": "induces apoptosis"}, {"measurement": "toxicity, tumor cell selectivity", "setting": "tumor cells", "result": "selectively toxic in tumor cells"}, {"measurement": "tumor cell death", "setting": "tumor cell", "result": "potent inducer of tumor cell death"}, {"measurement": "relative abundance among J-series PG-EAs produced", "setting": "COX-2", "result": "most abundant produced"}, {"measurement": "J-series PGs identified in AEA-treated cells", "setting": "COX-2", "result": "metabolic products of AEA"}]}, {"smiles": "CCCCCC(O)CC=C1C(=O)C=CC1CC=CCCCC(=O)NCCO", "note": "(stereo not shown) [D12-PGJ-EA]", "values": [{"measurement": "J-series PGs identified in AEA-treated cells", "setting": "COX-2", "result": "metabolic products of AEA"}]}, {"smiles": "Cl[Se](Cl)(Cl)Cl", "note": "[SeCL4]", "values": [{"measurement": "AEA-induced CHOP10 expression", "setting": "[6]; FIG. 12", "result": "inhibited"}, {"measurement": "AEA-induced Caspase-3 cleavage", "setting": "[6]; indicator of apoptosis, FIG. 12", "result": "inhibited"}, {"measurement": "AEA-induced PGD2 production", "setting": "H-PGDS and L-PGDS", "result": "reversed"}, {"measurement": "AEA-induced PGJ2 production", "setting": "H-PGDS and L-PGDS", "result": "reversed"}]}, {"smiles": "CCCCCc1cc(O)c2c(c1)OC(C)(C)[C@@H]1CCC(C)=C[C@@H]21", "note": "[Δ^9-THC, Δ^9-tetrahydrocannabinol]", "values": [{"measurement": "Lewis lung adenocarcinoma growth", "setting": "[7]", "result": "reduce Lewis lung adenocarcinoma growth"}]}, {"smiles": "CCCCC/C=C/C=C1/C(=O)C=C[C@@H]1C/C=C\\CCCC(=O)O", "note": "[15-deoxy Δ^12,14 PGJ2, 15-deoxy-Δ^12,14-Prostaglandin J2]", "values": [{"measurement": "cell death", "setting": "[1]", "result": "inducers of cell death"}]}, {"smiles": "Cc1c(C(=O)c2cccc3ccccc23)c2cccc3c2n1[C@H](CN1CCOCC1)CO3", "note": "[WIN-55, 212-2]", "values": [{"measurement": "epidermal tumor growth", "setting": "epidermal tumor", "result": "blocked"}]}, {"smiles": "CCCCC[C@H](O)/C=C/[C@H]1C(=O)C[C@H](O)[C@@H]1C/C=C\\CCCC(=O)NCCO", "note": "[PGD2-EA]", "values": [{"measurement": "CHOP10 expression", "setting": "[6]; FIG. 13", "result": "increased"}, {"measurement": "Cl-Casp3 expression", "setting": "[6]; FIG. 13", "result": "increased"}, {"measurement": "cell death", "setting": "[1]", "result": "cytotoxic"}]}]}
